# Data reported in article PMC4535450, “Two enzymes with redundant fructose bisphosphatase activity sustain gluconeogenesis and virulence in Mycobacterium tuberculosis” (Nature Communications, 2015).
# Biological target: GLPX (Rv1099c) (Mycobacterium tuberculosis, UniProt P9WN21)
# Assay type: biochemical
smiles,measurement,value
"O=P(O)(O)OC[C@H]1OC(O)(COP(=O)(O)O)[C@@H](O)[C@@H]1O (stereo partly shown) [fructose 1,6-bisphosphate]","coupled spectrophotometric assay (phosphoglucoisomerase / G6P dehydrogenase, NAD)",Expression of GLPX in ΔglpXΔgpm2 provided lithium-sensitive FBPase activity
